Measurements published in ChEMBL document CHEMBL4627332, “Interruption of Vif/Elongin C interaction: In silico and experimental elucidation of the underlying molecular mechanism of benzimidazole-based APOBEC3G stabilizers” (Bioorg Med Chem, 2020).
Activity calls are given as the source filed them. The calls are words filed in the database; no cut-off is given here.

Assay: Inhibition of HIV1 Vif interaction with ElonginC (unknown origin) co-transfected in 293 T cells assessed as decrease in ElonginC precipitation at 20 uM measured after 1 hr in presence of ant-FLAG antibody by immunoblot analysis
Assay type: cell-based

With Cc1noc(C)c1CSc1nc2ccccc2n1-c1ccccc1 the inhibition was “Active”.
